Source: patent US12421205B2, “GLP-1 receptor agonist” (HYUNDAI PHARM CO., LTD., priority 2019, dated 2025)
pEC50: −log10 of the molar value.

Columns and labels:
hERG = target: T1, hERG (Homo sapiens, UniProt Q12809); experiment: hERG inhibition test (Predictor hERG Fluorescence Polarization assay kit); format: binding; details: probe kit Tracer (fluorescent hERG ligand), hERG % inhibition at 10 uM, relative to E-4031 and solvent control
T1 construct: purchased Invitrogen PV5365
Procedure, shortened: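 Competitive fluorescence-polarization binding of fluorescent tracer to hERG membrane preparation, 2.5 h at room temperature, mP read at 531/579 nm. % inhibition at 10 uM test compound, scaled between solvent control (0%) and E-4031 (100%).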

human GLP-1 receptor = target: T2, human GLP-1 receptor (Homo sapiens, UniProt P43220); experiment: cAMP activity test (cAMP dynamic HTRF kit) in CHO-K1/GLP-1 receptor-expressing cells; format: cell-based; details: cAMP activity, CHO-K1/GLP-1 receptor-expressing cells; read-out: EC50
T2 construct: host or cells: CHO-K1
Procedure, shortened: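 Cells in HBSS with 0.1% BSA, 0.5 mM IBMX and 5 mM HEPES, then lysed; cAMP-d2 and anti-cAMP cryptate added for 3 h. HTRF read-out, where FRET signal is inversely proportional to intracellular cAMP.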

T2 sequence (P43220 24-463): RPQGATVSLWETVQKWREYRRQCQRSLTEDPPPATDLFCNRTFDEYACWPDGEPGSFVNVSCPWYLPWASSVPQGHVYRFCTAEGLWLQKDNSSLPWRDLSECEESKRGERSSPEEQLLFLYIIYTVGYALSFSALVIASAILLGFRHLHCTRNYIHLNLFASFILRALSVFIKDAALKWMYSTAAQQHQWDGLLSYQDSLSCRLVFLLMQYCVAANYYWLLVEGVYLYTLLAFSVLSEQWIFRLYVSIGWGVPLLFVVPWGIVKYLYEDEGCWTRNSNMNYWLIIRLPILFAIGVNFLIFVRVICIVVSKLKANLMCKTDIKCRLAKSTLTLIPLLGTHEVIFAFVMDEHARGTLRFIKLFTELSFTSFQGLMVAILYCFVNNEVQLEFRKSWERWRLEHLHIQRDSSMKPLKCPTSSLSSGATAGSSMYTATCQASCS
T1 sequence (Q12809 whole entry): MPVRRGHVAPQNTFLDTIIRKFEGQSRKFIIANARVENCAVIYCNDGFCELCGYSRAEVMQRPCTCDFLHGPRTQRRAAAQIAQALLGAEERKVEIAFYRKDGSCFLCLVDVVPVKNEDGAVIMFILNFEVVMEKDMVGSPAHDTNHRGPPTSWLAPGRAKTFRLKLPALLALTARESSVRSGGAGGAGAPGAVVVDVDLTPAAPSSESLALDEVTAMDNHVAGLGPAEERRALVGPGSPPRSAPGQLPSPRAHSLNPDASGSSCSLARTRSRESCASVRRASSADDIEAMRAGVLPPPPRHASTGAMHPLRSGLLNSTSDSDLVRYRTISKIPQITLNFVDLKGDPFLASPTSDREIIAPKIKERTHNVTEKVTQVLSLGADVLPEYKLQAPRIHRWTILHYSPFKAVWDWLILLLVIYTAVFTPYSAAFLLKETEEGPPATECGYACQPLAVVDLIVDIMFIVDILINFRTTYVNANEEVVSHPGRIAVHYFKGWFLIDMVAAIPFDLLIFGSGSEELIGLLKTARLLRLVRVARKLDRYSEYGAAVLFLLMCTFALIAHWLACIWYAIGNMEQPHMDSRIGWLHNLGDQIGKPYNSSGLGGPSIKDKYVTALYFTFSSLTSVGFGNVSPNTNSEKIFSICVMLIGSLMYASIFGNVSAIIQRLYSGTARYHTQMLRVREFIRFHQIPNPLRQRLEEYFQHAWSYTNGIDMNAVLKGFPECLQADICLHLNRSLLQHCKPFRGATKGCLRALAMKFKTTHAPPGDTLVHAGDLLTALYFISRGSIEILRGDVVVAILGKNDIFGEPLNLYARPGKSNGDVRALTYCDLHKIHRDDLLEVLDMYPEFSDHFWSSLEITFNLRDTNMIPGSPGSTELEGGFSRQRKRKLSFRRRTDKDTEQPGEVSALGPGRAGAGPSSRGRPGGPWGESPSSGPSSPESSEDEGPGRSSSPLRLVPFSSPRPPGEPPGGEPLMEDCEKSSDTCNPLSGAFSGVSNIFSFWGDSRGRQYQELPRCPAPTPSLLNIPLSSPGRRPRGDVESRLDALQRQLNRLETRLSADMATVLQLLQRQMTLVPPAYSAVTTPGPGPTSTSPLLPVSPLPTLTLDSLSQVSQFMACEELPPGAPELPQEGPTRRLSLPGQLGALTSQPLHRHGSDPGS

Row | pEC50 (human GLP-1 receptor) | Compound | inhibition at 2.5 h, 10 µM (hERG)
1 | 6.49 | O=C(O)c1ccc2nc(Cc3ccc(-c4cccc(OCc5cc(F)cc(Cl)c5)n4)c(F)c3)n(CC3CCCO3)c2c1 (centres unmarked) [Example 100, 2-(4-(6-(3-chloro-5-fluorobenzyloxy)pyridin-2-yl)-3-fluorobenzyl)-1-((tetrahydrofuran-2-yl)methyl)-1H-benzo[d]imidazole-6-carboxylic acid] | -10.2%
2 | 6.68 | COc1cccc(COc2cccc(-c3ccc(Cc4nc5ccc(C(=O)O)cc5n4CC4CCCO4)c(F)c3)n2)c1 (centres unmarked) [Example 81, 2-(2-fluoro-4-(6-(3-methoxybenzyloxy)pyridin-2-yl)benzyl)-1-((tetrahydrofuran-2-yl)methyl)-1H-benzo[d]imidazole-6-carboxylic acid] | -43.5%
3 | > 8.49 | N#Cc1ccc(COc2cccc(-c3ccc(Cc4nc5ccc(C(=O)O)cc5n4CC4CCO4)cc3F)n2)c(F)c1 (centres unmarked) [Example 114, 2-(4-(6-((4-cyano-2-fluorobenzyl)oxy)pyridin-2-yl)-3-fluorobenzyl)-1-(oxetan-2-ylmethyl)-1H-benzo[d]imidazole-6-carboxylic acid] | -4.71%
4 | > 8.49 | O=C(O)c1ccc2nc(Cc3ccc(-c4ccc(F)c(OCc5ccc(Cl)cc5F)n4)c(F)c3)n(C[C@@H]3CCO3)c2c1 [Example 117, (S)-2-(4-(6-((4-chloro-2-fluorobenzyl)oxy)-5-fluoropyridin-2-yl)-3-fluorobenzyl)-1-(oxetan-2-ylmethyl)-1H-benzo[d]imidazole-6-carboxylic acid] | 12.5%
5 | 7.43 | O=C(O)c1ccc2nc(Cc3ccc(-c4cccc(OCc5ccc(F)c(F)c5)n4)c(F)c3)n(C[C@@H]3CCO3)c2c1 [Example 125, (S)-2-(4-(6-((3,4-difluorobenzyl)oxy)pyridin-2-yl)-3-fluorobenzyl)-1-(oxetan-2-ylmethyl)-1H-benzo[d]imidazole-6-carboxylic acid] | -19.5%
6 | 7.34 | O=C(O)c1ccc2nc(Cn3ccc(-c4cccc(OCc5ccc(Cl)cc5F)n4)cc3=O)n(CC3CCCO3)c2c1 (centres unmarked) [Example 105, 2-((4-(6-(4-chloro-2-fluorobenzyloxy)pyridin-2-yl)-2-oxopyridin-1(2H)-yl)methyl)-1-((tetrahydrofuran-2-yl)methyl)-1H-benzo[d]imidazole-6-carboxylic acid] | 25.1%
7 | 6.31 | O=C(O)c1ccc2nc(Cc3ccc(-c4cccc(OCc5cccnc5)n4)c(F)c3)n(C[C@@H]3CCO3)c2c1 [Example 129, (S)-2-(3-fluoro-4-(6-(pyridin-3-ylmethoxy)pyridin-2-yl)benzyl)-1-(oxetan-2-ylmethyl)-1H-benzo[d]imidazole-6-carboxylic acid] | -6.27%
8 | > 8.49 | N#Cc1ccc(COc2cccc(-c3ccc(Cc4nc5ccc(C(=O)O)cc5n4C[C@@H]4CCO4)c(F)c3F)n2)c(F)c1 [Example 113, (S)-2-(4-(6-((4-cyano-2-fluorobenzyl)oxy)pyridin-2-yl)-2,3-difluorobenzyl)-1-(oxetan-2-ylmethyl)-1H-benzo[d]imidazole-6-carboxylic acid] | -4.94%
9 | 6.72 | Cc1cccc(COc2cccc(-c3ccc(Cc4nc5ccc(C(=O)O)cc5n4CC4CCCO4)c(F)c3)n2)c1 (centres unmarked) [Example 80, 2-(2-fluoro-4-(6-(3-methylbenzyloxy)pyridin-2-yl)benzyl)-1-((tetrahydrofuran-2-yl)methyl)-1H-benzo[d]imidazole-6-carboxylic acid] | -25.2%
10 | 6.54 | O=C(O)c1ccc2nc(Cn3cnc(-c4cccc(OCc5ccc(Cl)cc5F)n4)cc3=O)n(CC3CCCO3)c2c1 (centres unmarked) [Example 112, 2-((4-(6-(4-chloro-2-fluorobenzyloxy)pyridin-2-yl)-6-oxopyrimidin-1(6H)-yl)methyl)-1-((tetrahydrofuran-2-yl)methyl)-1H-benzo[d]imidazole-6-carboxylic acid] | 1.14%
11 | 8.14 | O=C(O)c1ccc2nc(Cc3ccc(-c4ccc(F)c(OCc5ccc(Cl)cc5F)n4)cc3F)n(CC3CCCO3)c2c1 (centres unmarked) [Example 91, 2-(4-(6-(4-chloro-2-fluorobenzyloxy)-5-fluoropyridin-2-yl)-2-fluorobenzyl)-1-((tetrahydrofuran-2-yl)methyl)-1H-benzo[d]imidazole-6-carboxylic acid] | -68.2%

More lines, now with the values behind:

Row | Compound | pEC50 (human GLP-1 receptor) | inhibition at 2.5 h, 10 µM (hERG)
12 | COCCn1c(Cc2ccc(-c3cccc(OCc4ccc(Cl)cc4F)n3)cc2[N+](=O)[O-])nc2ccc(C(=O)O)cc21 [Example 5, 2-(4-(6-(4-chloro-2-fluorobenzyloxy)pyridin-2-yl)-2-nitrobenzyl)-1-(2-methoxyethyl)-1H-benzo[d]imidazole-6-carboxylic acid] | 6.21 | 2.74%
13 | COCCn1c(Cc2ccc(-c3cccc(OCc4ccc(Cl)cc4F)n3)c(C)c2)nc2ccc(C(=O)O)cc21 [Example 4, 2-(4-(6-(4-chloro-2-fluorobenzyloxy)pyridin-2-yl)-3-methylbenzyl)-1-(2-methoxyethyl)-1H-benzo[d]imidazole-6-carboxylic acid] | 6.70 | -2.87%
14 | Cc1cc(Cc2nc3ccc(C(=O)O)cc3n2Cc2ccco2)ccc1-c1cccc(OCc2ccc(C#N)cc2F)n1 [Example 30, 2-(4-(6-(4-cyano-2-fluorobenzyloxy)pyridin-2-yl)-3-methylbenzyl)-1-(furan-2-ylmethyl)-1H-benzo[d]imidazole-6-carboxylic acid] | 6.34 | 0.33%
15 | COCCn1c(Cc2ccc(-c3cccc(OCc4ccc(Cl)cc4F)n3)cc2C)nc2ccc(C(=O)O)cc21 [Example 53, 2-(4-(6-(4-chloro-2-fluorobenzyloxy)pyridin-2-yl)-2-methylbenzyl)-1-(2-methoxyethyl)-1H-benzo[d]imidazole-6-carboxylic acid] | 7.41 | 18.7%
16 | N#Cc1ccc(COc2cccc(-c3ccc(Cc4nc5ccc(C(=O)O)cc5n4C[C@@H]4CCO4)cc3F)n2)c(F)c1 [Example 74, (S)-2-(4-(6-(4-cyano-2-fluorobenzyloxy)pyridin-2-yl)-3-fluorobenzyl)-1-(oxetan-2-ylmethyl)-1H-benzo[d]imidazole-6-carboxylic acid] | 8.24 | -16.2%
17 | N#Cc1ccc(COc2cccc(-c3ccc(Cc4nc5ccc(C(=O)O)cc5n4C[C@H]4CCCO4)c(F)c3)c2)c(F)c1 [Example 46, (R)-2-((3′-(4-cyano-2-fluorobenzyloxy)-3-fluorobiphenyl-4-yl)methyl)-1-((tetrahydrofuran-2-yl)methyl)-1H-benzo[d]imidazole-6-carboxylic acid] | 6.59 | 1.04%
18 | Cc1cc(-c2cccc(OCc3ccc(Cl)cc3F)n2)ccc1Cc1nc2ccc(C(=O)O)cc2n1CC1CCCO1 (centres unmarked) [Example 69, 2-(4-(6-(4-chloro-2-fluorobenzyloxy)pyridin-2-yl)-2-methylbenzyl)-1-((tetrahydrofuran-2-yl)methyl)-1H-benzo[d]imidazole-6-carboxylic acid] | 7.51 | -14.7%
19 | COCCn1c(Cc2ccc(-c3cccc(OCc4ccc(C#N)cc4F)n3)cc2C)nc2ccc(C(=O)O)cc21 [Example 54, 2-(4-(6-(4-cyano-2-fluorobenzyloxy)pyridin-2-yl)-2-methylbenzyl)-1-(2-methoxyethyl)-1H-benzo[d]imidazole-6-carboxylic acid] | 6.96 | 36.5%
20 | COCCn1c(Cc2ccc(-c3cccc(OCc4ccc(C#N)cc4F)n3)cc2)nc2ccc(C(=O)O)cc21 [Example 20, 2-(4-(6-(4-cyano-2-fluorobenzyloxy)pyridin-2-yl)benzyl)-1-(2-methoxyethyl)-1H-benzo[d]imidazole-6-carboxylic acid] | 6.62 | 6.19%
21 | N#Cc1ccc(COc2cccc(-c3ccc(Cc4nc5ccc(C(=O)O)cc5n4C[C@@H]4CCCO4)cc3F)n2)c(F)c1 [Example 67, (S)-2-(4-(6-(4-cyano-2-fluorobenzyloxy)pyridin-2-yl)-3-fluorobenzyl)-1-((tetrahydrofuran-2-yl)methyl)-1H-benzo[d]imidazole-6-carboxylic acid] | 7.96 | 0.85%
22 | N#Cc1ccc(COc2cccc(-c3ccc(Cc4nc5ccc(C(=O)O)cc5n4Cc4ccco4)c(F)c3)c2)c(F)c1 [Example 28, 2-((3′-(4-cyano-2-fluorobenzyloxy)-3-fluorobiphenyl-4-yl)methyl)-1-(furan-2-ylmethyl)-1H-benzo[d]imidazole-6-carboxylic acid] | 6.89 | 0.52%
23 | O=C(O)c1ccc2nc(Cc3cc(F)c(-c4cccc(OCc5ccc(Cl)cc5F)n4)cc3F)n(CC3CCCO3)c2c1 (centres unmarked) [Example 70, 2-(4-(6-(4-chloro-2-fluorobenzyloxy)pyridin-2-yl)-2,5-difluorobenzyl)-1-((tetrahydrofuran-2-yl)methyl)-1H-benzo[d]imidazole-6-carboxylic acid] | > 8.49 | -6.14%
24 | N#Cc1ccc(COc2cccc(-c3ccc(Cc4nc5ccc(C(=O)O)cc5n4C[C@@H]4CCCO4)c(F)c3)n2)c(F)c1 [Example 66, (S)-2-(4-(6-(4-cyano-2-fluorobenzyloxy)pyridin-2-yl)-2-fluorobenzyl)-1-((tetrahydrofuran-2-yl)methyl)-1H-benzo[d]imidazole-6-carboxylic acid] | 8.34 | -7.97%
25 | N#Cc1ccc(COc2cccc(-c3ccc(Cc4nc5ccc(C(=O)O)cc5n4CC4CCCO4)cc3)c2)c(F)c1 (centres unmarked) [Example 8, 2-((3′-(4-cyano-2-fluorobenzyloxy)biphenyl-4-yl)methyl)-1-((tetrahydrofuran-2-yl)methyl)-1H-benzo[d]imidazole-6-carboxylic acid] | 6.92 | 4.01%
